The values that follow come from paper PMC10681007, “Targeted Degradation of XIAP is Sufficient and Specific to Induce Apoptosis in MYCN-overexpressing High-risk Neuroblastoma” (Cancer Research Communications, 2023).

A word on the IC50: it is the concentration that gives 50% inhibition.

Assay type in all cases: cell-based, Human
For one series, the system named is THLE3 (liver origin). The series can be described thus: RealTime-Glo MT cell viability assay, noncancerous normal cells. The conditions noted are these: Homo sapiens. The procedure:
(§1) Cell viability was measured in real time using RealTime-Glo MT Cell Viability Assay as according to manufacturer's instructions from Promega. Cells were seeded at 1 × 10^4 cells per well and treated with a range of doses of indicated antagonists, followed by continuous bioluminescence reading every 24 hours for 3 days using luminescent plate reader, Varioskan (SkanIT software). IC50 was determined using GraphPad Prism software.
(§2) To determine their efficacy in neuroblastoma, a panel of neuroblastoma cell lines including neuroblastoma patient-derived cell lines and noncancerous normal tissue-derived cell lines were treated with increasing doses of each antagonist (0–100 µmol/L), followed by real-time measurement of cell viability every 24 for 72 hours.
(§3) To evaluate this, noncancerous normal tissue-derived cell lines THLE3 and HS5 were utilized to evaluate toxicity and tolerability.

A further series has as its system HS5 (bone marrow origin). Described as above. The conditions noted are these: Homo sapiens. How it is done:
as §1, §2, §3

Series [1] has as its system neuroblastoma cells across the panel of cell lines. Description: Cell viability, IC50 range across the panel. The conditions noted are these: Homo sapiens, Neuroblastoma cell; range over cell lines, doses 0–100 µmol/L, viability every 24 for 72 hours; read-out: IC50 against neuroblastoma cells across the panel of cell lines. How it is done: as §1, with “([…]” for “(SkanIT”, “software. To determine their efficacy in neuroblastoma, a panel of neuroblastoma cell lines including neuroblastoma patient-derived cell lines and noncancerous normal tissue-derived cell lines were treated with increasing doses of each antagonist (0-100 μmol/L), followed by real-time measurement of cell viability every 24 for 72 hours. […] Supplementary Table S2; Fig. 2A). […] Fig. 2A).” for “software.”

The subject of a further series is THLE3 and HS5. Description: Toxicity and tolerability in noncancerous normal tissue-derived cell lines. The conditions noted are these: THLE3 and HS5 versus neuroblastoma cells. The procedure:
as §1
To evaluate this, noncancerous normal tissue-derived cell lines THLE3 and HS5 were utilized to evaluate toxicity and tolerability. […] On the basis of their overall potency and specificity toward neuroblastoma cells over noncancerous normal cells, A4, B3, and BV6 were selected as the more efficacious antagonists to be studied further in subsequent experiments (Fig. 2A).

In another series the test system is IMR-32. The series can be described thus: RealTime-Glo MT cell viability assay. The conditions noted are these: Homo sapiens. How it is done: as §1, §2
For another series, the system named is SK-N-SH. Description: RealTime-Glo MT cell viability assay. As to conditions: Homo sapiens. The procedure: as §1, §2
In series [2] the test system is NBL-07-0317 patient-derived neuroblastoma cells. Description: RealTime-Glo MT cell viability assay. The conditions noted are these: Homo sapiens, Neuroblastoma cell. The procedure:
as §1, §2

Another series deals with NLF. The series can be described thus: RealTime-Glo MT cell viability assay. The conditions noted are these: Homo sapiens. The procedure:
as §1, §2

Series [3] relates to NBL01-1116 patient-derived neuroblastoma cells. Description: RealTime-Glo MT cell viability assay. As to conditions: Homo sapiens, Neuroblastoma cell. How it is done: as §1, §2
Series [4] deals with NBL16-0118 patient-derived neuroblastoma cells. Description: RealTime-Glo MT cell viability assay. The conditions noted are these: Homo sapiens, Neuroblastoma cell. The procedure: as §1, §2
The next series has as its system NB1. The series can be described thus: RealTime-Glo MT cell viability assay. As to conditions: Homo sapiens. The procedure:
as §1, §2

For another series, the system named is SK-N-AS. Description: RealTime-Glo MT cell viability assay. The conditions noted are these: Homo sapiens. How it is done: as §1, §2
For a further series, the system named is CHP212. Description: RealTime-Glo MT cell viability assay. As to conditions: Homo sapiens, CHP-212. The procedure: as §1, §2
The test system of series [5] is KELLY. Description: RealTime-Glo MT cell viability assay. The conditions noted are these: Homo sapiens. The procedure:
as §1, §2

For series [6], the system named is NBL27-0218A patient-derived neuroblastoma cells. The series can be described thus: RealTime-Glo MT cell viability assay. The conditions noted are these: Homo sapiens, Neuroblastoma cell. How it is done:
as §1, §2

Series [7] relates to BE(2)-C. Description: RealTime-Glo MT cell viability assay. The conditions noted are these: Homo sapiens. How it is done:
as §1, §2

For series [8], the system named is KELLY. Description: Drug interactions assay (Chou-Talalay CI, DRI). The conditions noted are these: topotecan dose axis, 48 hours. The procedure:
(§4) Drug interactions between XIAP-specific antagonist A4 and vincristine or topotecan were determined using the combination index (CI) by Chou and Talalay which was established on the basis of the mass-action law principle to derive the median-effect equation ([25]). […] Cell viability was measured and CI and dose reduction index (DRI) values were quantified using the CompuSyn software by Chou–Talalay. Areas under the dose–response curves were calculated using the trapezoidal method and compared using paired t test.
(§5) For treatment of high-risk neuroblastoma, current standard-of-care utilizes intensive multimodal therapy involving combinations of multiple cytotoxic agents. […] To analyze potential drug interactions, treatment of BE(2)-C and KELLY cells with A4 in combination with either vincristine or topotecan was examined. Using Chou–Talalay method, the drug interaction effect/type determined by the drug combination (CI) index is as follows: CI <1 (synergistic effect); CI = 1 (additive effect); CI >1 (antagonistic effect).
(§6) CI was generated using CompuSyn software by Chou–Talalay ([25]). CI60–90 represents the average CI at 60%–90% cell death. CI <1 denotes synergistic effect; CI = 1 denotes addictive effect and CI >1 denotes antagonistic effect. […] DRI was generated using CompuSyn software by Chou–Talalay. DRI60–90 represents the average DRI at 60%–90% cell death. DRI <1 denotes unfavorable dose reduction and DRI >1 denotes favorable dose reduction.

In series [9] the test system is BE(2)-C. Description: Drug interactions assay (Chou-Talalay CI, DRI). The conditions noted are these: topotecan dose axis, 48 hours. How it is done:
as §4, §5, §6

Where a name gives a salt, the structure may show the parent alone. Bounds are passed on as bounds.

Take `CN[C@@H](C)C(=O)N[C@H](C(=O)N1CCC[C@H]1c1nc(C(=O)c2ccc(F)cc2)cs1)C1CCCCC1` [LCL161]: the IC50 was over 60 µM in the series on THLE3 (liver origin) (THLE3, 24 hours); 24 µM in the series with THLE3 (liver origin) (THLE3, 48 hours); 14.5 µM in the series on THLE3 (liver origin) (THLE3, 72 hours); 30 µM in the series on HS5 (bone marrow origin) (HS5, 24 hours); 18 µM in the series on HS5 (bone marrow origin) (HS5, 48 hours); 15.5 µM in the series on HS5 (bone marrow origin) (HS5, 72 hours). Also, the IC50 is 20 to 60 µM in [1]; over 60 µM in the series with IMR-32 (IMR-32, 24 hours); 30 µM with IMR-32 (IMR-32, 48 hours); 19 µM in the series with IMR-32 (IMR-32, 72 hours); 55.4 µM with SK-N-SH (24 hours); 44 µM with SK-N-SH (48 hours). Further, the IC50 with SK-N-SH (72 hours) came out at 33 µM; in series [2] (NBL-07-0317, 24 hours) it was 33.6 µM; in [2] (NBL-07-0317, 48 hours) it was 31.8 µM; in [2] (NBL-07-0317, 72 hours), 30 µM; in the series on NLF (24 hours) it was 32.8 µM; with NLF (48 hours), 30.2 µM. The IC50 in the series with NLF (72 hours) amounted to 28.5 µM; in series [3] (NBL01-1116, 24 hours) it was 42 µM; in series [3] (NBL01-1116, 48 hours), 36.4 µM; in series [3] (NBL01-1116, 72 hours) it was 36 µM; in series [4] (NBL16-0118, 24 hours) it was 34 µM; in series [4] (NBL16-0118, 48 hours), 27.5 µM. In addition, the IC50 is 22.5 µM in [4] (NBL16-0118, 72 hours); over 60 µM in the series with NB1 (NB1, 24 hours); 46.5 µM in the series on NB1 (NB1, 48 hours); 27.4 µM with NB1 (NB1, 72 hours); 34 µM with SK-N-AS (24 hours); 22.5 µM in the series on SK-N-AS (48 hours). Moreover, the IC50 in the series with SK-N-AS (72 hours) was found to be 15.7 µM; in the series with CHP212 (CHP212, 24 hours), 42 µM; in the series with CHP212 (CHP212, 48 hours), 33 µM; in the series with CHP212 (CHP212, 72 hours), 31.2 µM; in the series on KELLY [5] (24 hours), 48.2 µM; in the series on KELLY [5] (48 hours), 27.6 µM. For the same compound, the IC50 in the series on KELLY [5] (72 hours) is 21.2 µM; in series [6] (24 hours), 39 µM; in [6] (48 hours), 32.5 µM; in series [6] (72 hours), 28.5 µM; in the series with BE(2)-C [7] (24 hours) it was over 60 µM; with BE(2)-C [7] (48 hours), 42.5 µM. This compound returned an IC50 with BE(2)-C [7] (72 hours) of 32.5 µM. Also, in the series on THLE3 and HS5, the “toxicity to noncancerous cells” value is “more toxic toward noncancerous cells than neuroblastoma cells”.
On to `CC[C@@]1(O)C(=O)OCc2c1cc1n(c2=O)Cc2cc3c(CN(C)C)c(O)ccc3nc2-1` [Topotecan, Topotecan hydrochloride], for which the “AUC of dose–response curve” value came out at 352.1±28.9 nM* luminescence in the series on KELLY [8] and 164.6±8.6 nM* luminescence with BE(2)-C [9].
